From patent US11932601B2, “Immunoregulatory agents” (FLEXUS BIOSCIENCES, INC., priority 2014, dated 2024) come the findings set out here.

The target in the assay is T1, human IDO1 (Homo sapiens, UniProt P14902).
T1 construct: expressed in transfected cells
The assay can be described thus: HEK293 cells stably expressing human IDO1, IDO inhibition assay (kynurenine, Ehrlich reagent, absorbance 490 nm). It counts as cell-based. The conditions noted are these: 20 hours incubation, 500 nM reference standard = 100% inhibition, read-out: HEK Human IDO-1 Biological Activity (IC50). As for the experimental part: HEK293 cells were transfected with a pCDNA-based mammalian expression vector harboring human IDO1 cDNA (NM 002164.2) by electroporation. They were cultured in medium (DMEM with 10% FBS) containing 1 mg/ml G418 for two weeks. Clones of HEK293 cells that stably expressed human IDO1 protein were selected and expanded for IDO inhibition assay.
The human IDO1/HEK293 cells were seeded at 10,000 cells per 50 μL per well with RPMI/phenol red free media contains 10% FBS in a 384-well black wall clear bottom tissue culture plate (Matrix Technologies LLC) 100 nL of certain concentration of compound was then added to each well using ECHO liquid handling systems. The cells were incubated for 20 hours in 37° C. incubator with 5% CO2.
The compound treatments were stopped by adding Trichloroacetic Acid (Sigma-Aldrich) to a final concentration at 0.2%. The cell plate was further incubated at 50° C. for 30 minute. The equal volume supernatant […] and 0.2% (w/v) Ehrlich reagent (4-dimethylaminobenzaldehyde, Sigma-Aldrich) in glacial acetic acid were mixed in a new clear bottom 384-well plate. This plate was then incubated at room temperature for 30 minute. The absorbance at 490 nm was measured on Envision plate reader.

T1 sequence (P14902 whole entry): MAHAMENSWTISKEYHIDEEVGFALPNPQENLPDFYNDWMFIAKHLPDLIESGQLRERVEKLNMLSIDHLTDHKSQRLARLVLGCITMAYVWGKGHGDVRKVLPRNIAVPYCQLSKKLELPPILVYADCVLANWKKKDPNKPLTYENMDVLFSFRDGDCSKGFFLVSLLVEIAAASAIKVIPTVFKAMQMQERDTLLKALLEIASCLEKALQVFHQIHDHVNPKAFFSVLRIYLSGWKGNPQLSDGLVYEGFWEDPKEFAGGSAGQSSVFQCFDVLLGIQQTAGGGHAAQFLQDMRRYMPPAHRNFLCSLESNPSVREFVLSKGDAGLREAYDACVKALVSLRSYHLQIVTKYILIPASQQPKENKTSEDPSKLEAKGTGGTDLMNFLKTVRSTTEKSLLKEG

In general, IC50 refers to the midpoint of a concentration-inhibition curve. Consider `CC(C(=O)Nc1ccc(Cl)cc1)C1CCC(c2ccnc(C(F)(F)F)c2)CC1` (single isomer, unassigned) [Example 312c, N-(4-chlorophenyl)-2-(4-(2-(trifluoromethyl)pyridin-4-yl)cyclohexyl) propanamide], for which the IC50 is less than 50 nM.
To `CC(C(=O)Nc1ccc(Cl)cc1)C1CCC(c2ccnc(C(F)(F)F)c2)CC1` (single isomer, unassigned) [Example 312d, N-(4-chlorophenyl)-2-(4-(2-(trifluoromethyl)pyridin-4-yl)cyclohexyl) propanamide] belongs less than 250 nM; to `Cc1cnccc1C1CCC(C(C)C(=O)Nc2ccc(Cl)cc2)CC1` (single isomer, unassigned) [Example 313a, N-(4-chlorophenyl)-2-(4-(3-methylpyridin-4-yl)cyclohexyl) propanamide], less than 50 nM.
The value for `Cc1cnccc1C1CCC(C(C)C(=O)Nc2ccc(Cl)cc2)CC1` (single isomer, unassigned) [Example 313b, N-(4-chlorophenyl)-2-(4-(3-methylpyridin-4-yl)cyclohexyl) propanamide] was less than 50 nM; that for `Cc1cnccc1C1CCC(C(C)C(=O)Nc2ccc(Cl)cc2)CC1` (single isomer, unassigned) [Example 313c, N-(4-chlorophenyl)-2-(4-(3-methylpyridin-4-yl)cyclohexyl) propanamide] was greater than 250 nM.
Turning to `Cc1cnccc1C1CCC(C(C)C(=O)Nc2ccc(Cl)cc2)CC1` (single isomer, unassigned) [Example 313d, N-(4-chlorophenyl)-2-(4-(3-methylpyridin-4-yl)cyclohexyl) propanamide], the IC50 was less than 50 nM.
In the case of `Cc1cnccc1C1CCC(C(C)C(=O)Nc2ccc(Cl)cc2)CC1` (single isomer, unassigned) [Example 313e, N-(4-chlorophenyl)-2-(4-(3-methylpyridin-4-yl)cyclohexyl) propanamide], the 50% inhibitory concentration (IC50) is greater than 250 nM.
Take `Cc1cnccc1C1CCC(C(C)C(=O)Nc2ccc(Cl)cc2)CC1` (single isomer, unassigned) [Example 313f, N-(4-chlorophenyl)-2-(4-(3-methylpyridin-4-yl)cyclohexyl) propanamide]: the IC50 was less than 50 nM.
The value for `CC(C(=O)Nc1ccc(Cl)cc1)C1CCC(c2cc(-c3ccc(F)cc3)ncn2)CC1` (single isomer, unassigned) [Example 314b, N-(4-chlorophenyl)-2-(4-(6-(4-fluorophenyl)pyrimidin-4-yl)cyclohexyl) propanamide] was less than 250 nM.
The value for `CC(=O)Nc1cc(C2CCC(C(C)C(=O)Nc3ccc(Cl)cc3)CC2)ccn1` (single isomer, unassigned) [Example 315a, 2-(4-(2-acetamidopyridin-4-yl)cyclohexyl)-N-(4-chlorophenyl) propanamide] was less than 250 nM; that for `CC(=O)Nc1cc(C2CCC(C(C)C(=O)Nc3ccc(Cl)cc3)CC2)ccn1` (single isomer, unassigned) [Example 315b, 2-(4-(2-acetamidopyridin-4-yl)cyclohexyl)-N-(4-chlorophenyl) propanamide] was less than 50 nM.
To `CC(C(=O)Nc1ccc(Cl)cc1)C1CCC(c2ccnnc2)CC1` (single isomer, unassigned) [Example 316a, N-(4-chlorophenyl)-2-(4-(pyridazin-4-yl)cyclohexyl) propanamide] belongs greater than 250 nM.
Regarding `CC(C(=O)Nc1ccc(Cl)cc1)C1CCC(c2ccnnc2)CC1` (single isomer, unassigned) [Example 316b, N-(4-chlorophenyl)-2-(4-(pyridazin-4-yl)cyclohexyl) propanamide], the IC50 was greater than 250 nM.
The value for `CC(C(=O)Nc1ccc(Cl)cc1)C1CCC(c2ccnnc2)CC1` (single isomer, unassigned) [Example 316c, N-(4-chlorophenyl)-2-(4-(pyridazin-4-yl)cyclohexyl) propanamide] was greater than 250 nM; that for `CC(C(=O)Nc1ccc(Cl)cc1)C1CCC(c2ccnnc2)CC1` (single isomer, unassigned) [Example 316d, N-(4-chlorophenyl)-2-(4-(pyridazin-4-yl)cyclohexyl) propanamide] was greater than 250 nM; that for `CC(C(=O)Nc1ccc(Cl)cc1)C1CCC(c2cccc(-c3ccccc3)c2)CC1` (single isomer, unassigned) [Example 317a, 2-(4-([1,1′-biphenyl]-3-yl)cyclohexyl)-N-(4-chlorophenyl) propanamide] was less than 50 nM.
To `CC(C(=O)Nc1ccc(Cl)cc1)C1CCC(c2cccc(-c3ccccc3)c2)CC1` (single isomer, unassigned) [Example 317b, 2-(4-([1,1′-biphenyl]-3-yl)cyclohexyl)-N-(4-chlorophenyl) propanamide] belongs less than 50 nM; to `CC(C(=O)Nc1ccc(Cl)cc1)C1CCC(c2cccc(-c3ccccc3)c2)CC1` (single isomer, unassigned) [Example 317c, 2-(4-([1,1′-biphenyl]-3-yl)cyclohexyl)-N-(4-chlorophenyl) propanamide], greater than 250 nM.
To `CC(C(=O)Nc1ccc(Cl)cc1)C1CCC(c2cccc(-c3ccccc3)c2)CC1` (single isomer, unassigned) [Example 317d, 2-(4-([1,1′-biphenyl]-3-yl)cyclohexyl)-N-(4-chlorophenyl) propanamide] belongs greater than 250 nM; to `CC(C(=O)Nc1ccc(Cl)cc1)C1CCC(c2ccncc2F)CC1` (single isomer, unassigned) [Example 318b, N-(4-chlorophenyl)-2-(4-(3-fluoropyridin-4-yl)cyclohexyl) propanamide], less than 50 nM.
`CC(C(=O)Nc1ccc(Cl)cc1)C1CCC(c2ccncc2F)CC1` (single isomer, unassigned) [Example 318c, N-(4-chlorophenyl)-2-(4-(3-fluoropyridin-4-yl)cyclohexyl) propanamide]: the IC50 was greater than 250 nM.
The value for `CC(C(=O)Nc1ccc(Cl)cc1)C1CCC(c2ccncc2F)CC1` (single isomer, unassigned) [Example 318d, N-(4-chlorophenyl)-2-(4-(3-fluoropyridin-4-yl)cyclohexyl) propanamide] was less than 250 nM.
To `CC(C(=O)Nc1ccc(Cl)cc1)C1CCC(c2ccncc2F)CC1` (single isomer, unassigned) [Example 318e, N-(4-chlorophenyl)-2-(4-(3-fluoropyridin-4-yl)cyclohexyl) propanamide] belongs less than 50 nM.
The value for `Cc1nccc(O[C@H]2CC[C@H](C(C)C(=O)Nc3ccc(Cl)cc3)CC2)c1Cl` (single isomer, unassigned) [Example 320, rac-2-((trans)-4-((3-chloro-2-methylpyridin-4-yl)oxy)cyclohexyl)-N-(4-chlorophenyl)propanamide] was less than 50 nM.
Take `C[C@H](C(=O)Nc1ccc(Cl)cc1)[C@H]1CC[C@H](Oc2ccnc(C(F)(F)F)c2)CC1` (single isomer, unassigned) [Example 324a]: the IC50 is less than 250 nM.
To `C[C@@H](C(=O)Nc1ccc(Cl)cc1)[C@H]1CC[C@H](Oc2ccnc(C(F)(F)F)c2)CC1` (single isomer, unassigned) [Example 324b] belongs greater than 250 nM; to `COc1cc(C2CCC(C(C)C(=O)Nc3ccc(Cl)cc3)CC2)ccn1` (stereo not drawn) [Example 307a, Cis- or trans-N-(4-Chlorophenyl)-2-(4-(2-methoxypyridin-4-yl)cyclohexyl)propanamide], less than 50 nM; to `COc1cc(C2CCC(C(C)C(=O)Nc3ccc(Cl)cc3)CC2)ccn1` (stereo not drawn) [Example 307b, Cis- or trans-N-(4-Chlorophenyl)-2-(4-(2-methoxypyridin-4-yl)cyclohexyl)propanamide], less than 50 nM.
The value for `CC(C(=O)Nc1ccc(Cl)cc1)C1CCC(c2cc(-c3ccc(F)cc3)ncn2)CC1` (stereo not shown) [Example 314a, N-(4-chlorophenyl)-2-(4-(6-(4-fluorophenyl)pyrimidin-4-yl)cyclohexyl) propanamide] was less than 250 nM; that for `CC(C(=O)Nc1ccc(Cl)cc1)C1CCC(c2ccncc2F)CC1` (stereo not shown) [Example 318a, N-(4-chlorophenyl)-2-(4-(3-fluoropyridin-4-yl)cyclohexyl) propanamide] was less than 50 nM; that for `Cc1nccc(C2CCC(C(C)C(=O)Nc3ccc(Cl)cc3)CC2)n1` (stereo not shown) [Example 319a, N-(4-chlorophenyl)-2-(4-(2-methylpyrimidin-4-yl)cyclohexyl) propanamide] was less than 250 nM.
For the compound `Cc1nccc(C2CCC(C(C)C(=O)Nc3ccc(Cl)cc3)CC2)n1` (stereo not shown) [Example 319b, N-(4-chlorophenyl)-2-(4-(2-methylpyrimidin-4-yl)cyclohexyl) propanamide], the IC50 is greater than 250 nM.
As for `CC1(CC(=O)Nc2ccc(Cl)cc2)CCN(c2ccnc(C(F)(F)F)c2)CC1` [Example 321, N-(4-Chlorophenyl)-2-(4-methyl-1-(2-(trifluoromethyl)pyridin-4-yl)piperidin-4-yl)acetamide], the half-maximal inhibitory concentration (IC50) is less than 250 nM.
With `CC1(CC(=O)NC2(C)CCCCC2)CCN(c2ccnc(C(F)(F)F)c2)CC1` [Example 322, 2-(4-Methyl-1-(2-(trifluoromethyl)pyridin-4-yl)piperidin-4-yl)-N-(1-methylcyclohexyl)acetamide], the IC50 was greater than 250 nM.
